Measured values published in ChEMBL document CHEMBL5500396, “Discovery, Multiparametric Optimization, and Solid-State Driven Identification of CHF-6550, a Novel Soft Dual Pharmacology Muscarinic Antagonist and β2 Agonist (MABA) for the Inhaled Treatment of Respiratory Diseases” (J Med Chem, 2024).

Assays:
[1] = biological target: Muscarinic acetylcholine receptor M3 (Cavia porcellus, UniProt Q8VH26); experiment: Antagonist activity at M3 receptor in male albino Dunkin-Hartley guinea pig trachea assessed as inhibition of carbachol-induced smooth muscle contraction in presence of propranolol
Sequence of Muscarinic acetylcholine receptor M3 (Cavia porcellus, UniProt Q8VH26) (Q8VH26 whole entry): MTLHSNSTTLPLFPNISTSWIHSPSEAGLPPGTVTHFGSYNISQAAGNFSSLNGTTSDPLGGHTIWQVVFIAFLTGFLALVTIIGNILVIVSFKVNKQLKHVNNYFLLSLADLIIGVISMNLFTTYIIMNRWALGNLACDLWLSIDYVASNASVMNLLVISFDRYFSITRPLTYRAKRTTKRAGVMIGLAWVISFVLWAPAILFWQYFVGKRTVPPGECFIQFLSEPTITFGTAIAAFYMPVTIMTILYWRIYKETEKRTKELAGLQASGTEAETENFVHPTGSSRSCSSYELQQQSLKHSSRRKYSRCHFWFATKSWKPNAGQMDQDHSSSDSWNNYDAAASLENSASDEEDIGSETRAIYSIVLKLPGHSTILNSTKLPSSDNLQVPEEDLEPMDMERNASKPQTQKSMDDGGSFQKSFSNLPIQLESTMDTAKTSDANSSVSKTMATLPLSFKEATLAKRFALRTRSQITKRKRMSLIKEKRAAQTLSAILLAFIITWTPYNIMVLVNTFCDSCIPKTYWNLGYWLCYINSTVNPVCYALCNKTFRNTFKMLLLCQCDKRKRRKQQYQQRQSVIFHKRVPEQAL

[2] = biological target: Beta-2 adrenergic receptor (Cavia porcellus, UniProt Q8K4Z4); experiment: Agonist activity at beta2 adrenoceptor in male albino Dunkin-Hartley guinea pig trachea assessed as inhibition of histamine induced smooth muscle contraction
Sequence of Beta-2 adrenergic receptor (Cavia porcellus, UniProt Q8K4Z4) (Q8K4Z4 whole entry): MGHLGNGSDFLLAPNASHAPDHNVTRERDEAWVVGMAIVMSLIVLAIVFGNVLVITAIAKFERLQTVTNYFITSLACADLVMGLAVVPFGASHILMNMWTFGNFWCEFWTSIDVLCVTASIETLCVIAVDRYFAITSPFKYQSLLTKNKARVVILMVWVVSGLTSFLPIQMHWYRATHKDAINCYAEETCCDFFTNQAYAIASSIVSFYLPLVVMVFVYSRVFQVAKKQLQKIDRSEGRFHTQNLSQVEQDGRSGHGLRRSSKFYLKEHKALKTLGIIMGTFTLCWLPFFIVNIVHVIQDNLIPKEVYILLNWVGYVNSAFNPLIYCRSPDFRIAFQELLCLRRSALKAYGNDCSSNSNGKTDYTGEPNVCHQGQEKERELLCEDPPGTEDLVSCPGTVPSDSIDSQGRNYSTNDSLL

Trachea = experiment: Inhibition of carbachol-induced smooth muscle contraction in male albino Dunkin-Hartley guinea pig trachea; settings: Cavia porcellus, read-out: pIC50 (converted)
Cavia porcellus [3] = experiment: Inhibition of histamine induced bronchoconstriction in male albino Dunkin-Hartley guinea pig model at 3 nmol/kg, IT(Intratracheal) preadministered with compound followed by histamine addition at 5 to 30 mins and measured 1 hrs post compound treatment relative to control; settings: read-out: INH
Cavia porcellus [4] = experiment: Inhibition of acetylcholine induced bronchoconstriction in male albino Dunkin-Hartley guinea pig model at 1 nmol/kg, IT(Intratracheal) preadministered with compound followed by acetylcholine addition at 5 to 30 mins and measured 1 hrs post compound treatment relative to control; settings: read-out: INH
Cavia porcellus [5] = experiment: Inhibition of acetylcholine induced bronchoconstriction in male albino Dunkin-Hartley guinea pig model at 3 nmol/kg, IT(Intratracheal) preadministered with compound followed by acetylcholine addition at 5 to 30 mins and measured 1 hrs post compound treatment relative to control; settings: read-out: INH
Cavia porcellus [6] = experiment: Inhibition of acetylcholine induced bronchoconstriction in male albino Dunkin-Hartley guinea pig model at 3 nmol/kg, IT(Intratracheal) preadministered with compound followed by acetylcholine addition at 5 to 30 mins and measured 24 hrs post compound treatment relative to control; settings: read-out: INH
[7] = Protein binding in human plasma at 5 uM incubated for 4 hrs by LC-MS/MS analysis
[8] = Protein binding in rat plasma at 5 uM incubated for 4 hrs by LC-MS/MS analysis
[9] = biological target: Muscarinic acetylcholine receptor M3 (Homo sapiens, UniProt P20309)
Sequence of Muscarinic acetylcholine receptor M3 (Homo sapiens, UniProt P20309) (P20309 whole entry): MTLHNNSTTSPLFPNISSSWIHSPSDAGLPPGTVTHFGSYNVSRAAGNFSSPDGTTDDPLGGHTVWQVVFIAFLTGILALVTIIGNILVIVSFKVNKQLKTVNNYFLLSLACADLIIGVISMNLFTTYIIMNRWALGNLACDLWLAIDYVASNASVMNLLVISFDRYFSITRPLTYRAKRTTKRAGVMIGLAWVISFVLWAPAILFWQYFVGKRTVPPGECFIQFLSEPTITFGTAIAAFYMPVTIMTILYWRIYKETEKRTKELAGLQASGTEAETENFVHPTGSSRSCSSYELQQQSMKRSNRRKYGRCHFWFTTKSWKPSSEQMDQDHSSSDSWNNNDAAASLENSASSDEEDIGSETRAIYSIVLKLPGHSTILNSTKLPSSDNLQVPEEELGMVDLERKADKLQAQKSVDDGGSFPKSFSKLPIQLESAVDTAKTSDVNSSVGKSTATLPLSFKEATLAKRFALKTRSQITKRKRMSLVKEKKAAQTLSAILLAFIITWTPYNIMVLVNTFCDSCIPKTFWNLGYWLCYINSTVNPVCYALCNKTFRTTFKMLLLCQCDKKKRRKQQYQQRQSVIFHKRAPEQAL
Description: Displacement of Scopolamine methyl chloride,[N-methyl-3H] from human muscarinic M3 receptor assessed as inhibition constant incubated for 2 hrs by Microbeta scintillation counter

[10] = biological target: Beta-2 adrenergic receptor (Homo sapiens, UniProt P07550)
Sequence of Beta-2 adrenergic receptor (Homo sapiens, UniProt P07550) (P07550 whole entry): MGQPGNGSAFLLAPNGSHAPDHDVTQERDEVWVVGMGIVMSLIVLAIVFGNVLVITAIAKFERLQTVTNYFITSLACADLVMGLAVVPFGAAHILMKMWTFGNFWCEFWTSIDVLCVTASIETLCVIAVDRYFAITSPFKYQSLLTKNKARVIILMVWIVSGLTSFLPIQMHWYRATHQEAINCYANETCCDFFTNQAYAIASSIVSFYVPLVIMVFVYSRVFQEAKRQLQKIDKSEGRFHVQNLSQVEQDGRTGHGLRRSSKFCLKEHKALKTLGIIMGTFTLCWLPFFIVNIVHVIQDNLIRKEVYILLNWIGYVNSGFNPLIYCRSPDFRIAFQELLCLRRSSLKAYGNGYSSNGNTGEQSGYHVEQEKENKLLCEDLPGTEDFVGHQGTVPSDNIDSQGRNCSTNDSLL
Description: Displacement of [125I]-Cyanopindolol from human beta2 adrenoceptor assessed as inhibition constant incubated for 1 hrs by Microbeta scintillation counter

in vitro [11] = settings: guinea pig, lung S9 fraction
Description: Stability in guinea pig lung S9 fraction assessed as half-life at 1 uM incubated for 60 mins by LC-MS/MS analysis

in vitro [12] = settings: human, hepatocytes
Description: Metabolic stability in human hepatocytes assessed as clearance measured per 10^6 cells at 1 uM incubated for 90 mins by LC-MS/MS analysis

in vitro [13] = settings: rat, hepatocytes
Description: Metabolic stability in rat hepatocytes assessed as clearance measured per 10^6 cells at 1 uM incubated for 90 mins by LC-MS/MS analysis

in vitro [14] = settings: human, lung S9 fraction
Description: Stability in human lung S9 fraction assessed as half-life at 1 uM incubated for 60 mins by LC-MS/MS analysis

in vitro [15] = settings: rat, lung S9 fraction
Description: Stability in rat lung S9 fraction assessed as half-life at 1 uM incubated for 60 mins by LC-MS/MS analysis

in vitro [16] = settings: human, plasma
Description: Stability in human plasma assessed as half-life at 5 uM incubated for 120 mins by LC-MS/MS analysis

in vitro [17] = settings: rat, plasma
Description: Stability in rat plasma assessed as half-life at 5 uM incubated for 120 mins by LC-MS/MS analysis

in vitro [18] = settings: guinea pig, plasma
Description: Stability in guinea pig plasma assessed as half-life at 5 uM incubated for 120 mins by LC-MS/MS analysis

Cavia porcellus [19] = organism: Cavia porcellus; experiment: animal or person; settings: albino Dunkin-Hartley, 1 h, read-out: INH
Description: Inhibition of acetylcholine induced bronchoconstriction in male albino Dunkin-Hartley guinea pig model at 3 nmol/kg, IT(Intratracheal) preadministered with compound followed by acetylcholine addition at 5 to 30 mins in presence of ICI-118551 and measured 1 hrs post compound treatment relative to control

[20] = Protein binding in guinea pig plasma at 5 uM incubated for 4 hrs by LC-MS/MS analysis
[21] = Stability in guinea pig lung S9 fraction at 1 uM incubated for 60 mins by LC-MS/MS analysis
Cavia porcellus [22] = experiment: Inhibition of histamine induced bronchoconstriction in male albino Dunkin-Hartley guinea pig model at 3 nmol/kg, IT(Intratracheal) preadministered with compound followed by histamine addition at 5 to 30 mins and measured 16 hrs post compound treatment relative to control; settings: read-out: INH
Cavia porcellus [23] = experiment: Inhibition of acetylcholine induced bronchoconstriction in male albino Dunkin-Hartley guinea pig model at 3 nmol/kg, IT(Intratracheal) preadministered with compound followed by acetylcholine addition at 5 to 30 mins and measured 16 hrs post compound treatment relative to control; settings: read-out: INH
in vitro [24] = settings: guinea pig, hepatocytes
Description: Metabolic stability in guinea pig hepatocytes assessed as clearance measured per 10^6 cells at 1 uM incubated for 90 mins by LC-MS/MS analysis

Cavia porcellus [25] = organism: Cavia porcellus; experiment: animal or person; settings: albino Dunkin-Hartley, 16 h, read-out: INH
Description: Inhibition of acetylcholine induced bronchoconstriction in male albino Dunkin-Hartley guinea pig model at 3 nmol/kg, IT(Intratracheal) preadministered with compound followed by acetylcholine addition at 5 to 30 mins in presence of ICI-118551 and measured 16 hrs post compound treatment relative to control

[26] = biological target: Voltage-gated inwardly rectifying potassium channel KCNH2 (Homo sapiens, UniProt Q12809)
Description: Inhibition of human ERG by patch clamp assay

[27] = biological target: Sodium channel protein type 5 subunit alpha (Homo sapiens, UniProt Q14524)
Description: Inhibition of human Nav1.5

[28] = biological target: Voltage-dependent L-type calcium channel subunit alpha-1C (Homo sapiens, UniProt Q13936)
Sequence of Voltage-dependent L-type calcium channel subunit alpha-1C (Q13936 whole entry): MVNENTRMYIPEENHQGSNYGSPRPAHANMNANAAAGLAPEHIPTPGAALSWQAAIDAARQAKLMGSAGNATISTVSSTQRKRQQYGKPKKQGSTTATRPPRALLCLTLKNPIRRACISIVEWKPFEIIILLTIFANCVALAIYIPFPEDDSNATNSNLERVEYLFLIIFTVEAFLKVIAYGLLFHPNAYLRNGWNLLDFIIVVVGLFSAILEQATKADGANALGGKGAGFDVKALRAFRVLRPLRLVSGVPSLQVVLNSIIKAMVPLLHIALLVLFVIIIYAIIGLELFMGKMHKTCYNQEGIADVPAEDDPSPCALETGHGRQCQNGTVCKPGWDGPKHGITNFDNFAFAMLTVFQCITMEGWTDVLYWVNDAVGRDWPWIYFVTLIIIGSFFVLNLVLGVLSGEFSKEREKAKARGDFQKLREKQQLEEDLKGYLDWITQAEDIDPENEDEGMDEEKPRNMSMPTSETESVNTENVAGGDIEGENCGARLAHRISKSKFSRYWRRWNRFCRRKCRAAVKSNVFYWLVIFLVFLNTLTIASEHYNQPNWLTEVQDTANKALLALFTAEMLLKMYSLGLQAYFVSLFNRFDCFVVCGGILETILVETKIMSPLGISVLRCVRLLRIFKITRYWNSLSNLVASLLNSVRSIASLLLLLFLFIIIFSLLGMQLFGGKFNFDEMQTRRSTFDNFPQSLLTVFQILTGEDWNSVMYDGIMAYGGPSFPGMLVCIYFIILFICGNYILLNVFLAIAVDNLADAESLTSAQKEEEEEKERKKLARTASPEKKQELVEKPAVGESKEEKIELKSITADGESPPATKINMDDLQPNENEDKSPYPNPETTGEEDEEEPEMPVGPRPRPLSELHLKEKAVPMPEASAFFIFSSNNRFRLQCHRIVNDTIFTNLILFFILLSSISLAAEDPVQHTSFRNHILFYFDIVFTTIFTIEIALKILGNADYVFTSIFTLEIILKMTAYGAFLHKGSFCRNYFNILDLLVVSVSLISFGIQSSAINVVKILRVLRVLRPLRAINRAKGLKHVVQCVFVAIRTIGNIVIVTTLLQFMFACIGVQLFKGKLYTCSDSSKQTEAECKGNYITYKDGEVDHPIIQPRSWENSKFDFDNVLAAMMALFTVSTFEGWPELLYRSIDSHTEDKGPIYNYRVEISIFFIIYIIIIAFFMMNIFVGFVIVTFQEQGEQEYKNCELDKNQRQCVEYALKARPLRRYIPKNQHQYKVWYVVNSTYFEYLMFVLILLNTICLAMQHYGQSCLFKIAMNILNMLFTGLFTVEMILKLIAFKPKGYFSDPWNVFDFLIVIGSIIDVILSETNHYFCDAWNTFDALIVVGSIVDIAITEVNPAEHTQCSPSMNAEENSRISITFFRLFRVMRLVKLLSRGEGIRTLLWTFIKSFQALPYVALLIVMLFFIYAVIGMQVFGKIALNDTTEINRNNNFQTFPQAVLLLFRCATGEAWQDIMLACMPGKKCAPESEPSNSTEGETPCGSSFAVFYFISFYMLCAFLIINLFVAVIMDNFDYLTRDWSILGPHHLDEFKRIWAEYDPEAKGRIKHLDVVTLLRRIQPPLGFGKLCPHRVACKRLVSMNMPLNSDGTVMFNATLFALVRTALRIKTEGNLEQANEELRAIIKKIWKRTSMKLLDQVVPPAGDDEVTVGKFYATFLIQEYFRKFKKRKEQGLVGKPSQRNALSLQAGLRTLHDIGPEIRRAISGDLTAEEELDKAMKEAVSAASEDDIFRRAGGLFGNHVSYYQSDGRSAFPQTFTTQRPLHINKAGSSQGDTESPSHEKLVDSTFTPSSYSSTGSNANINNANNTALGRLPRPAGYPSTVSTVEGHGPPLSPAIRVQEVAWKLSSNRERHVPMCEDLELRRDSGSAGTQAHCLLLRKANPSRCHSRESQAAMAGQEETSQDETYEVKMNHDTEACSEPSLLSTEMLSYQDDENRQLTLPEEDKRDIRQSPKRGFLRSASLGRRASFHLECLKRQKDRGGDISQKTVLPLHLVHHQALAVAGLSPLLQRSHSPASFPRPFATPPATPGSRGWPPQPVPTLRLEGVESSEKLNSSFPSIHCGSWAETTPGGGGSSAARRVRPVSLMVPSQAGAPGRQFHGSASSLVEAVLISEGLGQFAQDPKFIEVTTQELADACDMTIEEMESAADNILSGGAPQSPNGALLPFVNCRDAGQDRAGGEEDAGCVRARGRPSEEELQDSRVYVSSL
Description: Inhibition of human Cav1.2

Cavia porcellus [29] = experiment: Inhibition of histamine induced bronchoconstriction in male albino Dunkin-Hartley guinea pig model at 1 nmol/kg, IT(Intratracheal) preadministered with compound followed by histamine addition at 5 to 30 mins and measured 1 hrs post compound treatment relative to control; settings: read-out: INH
Cavia porcellus [30] = experiment: Inhibition of histamine induced bronchoconstriction in male albino Dunkin-Hartley guinea pig model at 1 nmol/kg, IT(Intratracheal) preadministered with compound followed by histamine addition at 5 to 30 mins and measured 24 hrs post compound treatment relative to control; settings: read-out: INH
Cavia porcellus [31] = experiment: Inhibition of acetylcholine induced bronchoconstriction in male albino Dunkin-Hartley guinea pig model at 1 nmol/kg, IT(Intratracheal) preadministered with compound followed by acetylcholine addition at 5 to 30 mins and measured 24 hrs post compound treatment relative to control; settings: read-out: INH
Cavia porcellus [32] = organism: Cavia porcellus; experiment: animal or person; settings: albino Dunkin-Hartley, 1 h, read-out: INH; remark: listed apart in the source
Description: Inhibition of acetylcholine induced bronchoconstriction in male albino Dunkin-Hartley guinea pig model at 1 nmol/kg, IT(Intratracheal) preadministered with compound followed by acetylcholine addition at 5 to 30 mins in presence of ICI-118551 and measured 1 hrs post compound treatment relative to control

Cavia porcellus [33] = organism: Cavia porcellus; experiment: animal or person; settings: albino Dunkin-Hartley, 24 h, read-out: INH
Description: Inhibition of acetylcholine induced bronchoconstriction in male albino Dunkin-Hartley guinea pig model at 1 nmol/kg, IT(Intratracheal) preadministered with compound followed by acetylcholine addition at 5 to 30 mins in presence of ICI-118551 and measured 24 hrs post compound treatment relative to control

Cavia porcellus [34] = experiment: Inhibition of histamine induced bronchoconstriction in male albino Dunkin-Hartley guinea pig model at 0.3 nmol/kg, IT(Intratracheal) preadministered with compound followed by histamine addition at 5 to 30 mins and measured 1 hrs post compound treatment relative to control; settings: read-out: INH
Cavia porcellus [35] = experiment: Inhibition of acetylcholine induced bronchoconstriction in male albino Dunkin-Hartley guinea pig model at 0.3 nmol/kg, IT(Intratracheal) preadministered with compound followed by acetylcholine addition at 5 to 30 mins and measured 1 hrs post compound treatment relative to control; settings: read-out: INH
Cavia porcellus [36] = experiment: Inhibition of histamine induced bronchoconstriction in male albino Dunkin-Hartley guinea pig model at 0.3 nmol/kg, IT(Intratracheal) preadministered with compound followed by histamine addition at 5 to 30 mins and measured 16 hrs post compound treatment relative to control; settings: read-out: INH
Cavia porcellus [37] = experiment: Inhibition of acetylcholine induced bronchoconstriction in male albino Dunkin-Hartley guinea pig model at 0.3 nmol/kg, IT(Intratracheal) preadministered with compound followed by acetylcholine addition at 5 to 30 mins and measured 16 hrs post compound treatment relative to control; settings: read-out: INH
Cavia porcellus [38] = organism: Cavia porcellus; experiment: animal or person; settings: albino Dunkin-Hartley, 1 h, read-out: INH; remark: listed apart in the source
Description: Inhibition of acetylcholine induced bronchoconstriction in male albino Dunkin-Hartley guinea pig model at 0.3 nmol/kg, IT(Intratracheal) preadministered with compound followed by acetylcholine addition at 5 to 30 mins in presence of ICI-118551 and measured 1 hrs post compound treatment relative to control

Cavia porcellus [39] = organism: Cavia porcellus; experiment: animal or person; settings: albino Dunkin-Hartley, 16 h, read-out: INH; remark: listed apart in the source
Description: Inhibition of acetylcholine induced bronchoconstriction in male albino Dunkin-Hartley guinea pig model at 0.3 nmol/kg, IT(Intratracheal) preadministered with compound followed by acetylcholine addition at 5 to 30 mins in presence of ICI-118551 and measured 16 hrs post compound treatment relative to control

[40] = Metabolic stability in rat hepatocytes assessed as parent compound remaining at 10 uM incubated for 60 mins by LC-MS/MS analysis
[41] = Metabolic stability in human hepatocytes assessed as parent compound remaining at 10 uM incubated for 60 mins by LC-MS/MS analysis
[42] = Stability in rat plasma assessed as parent compound remaining at 10 uM incubated for 60 mins by LC-MS/MS analysis
[43] = Stability in human plasma assessed as parent compound remaining at 10 uM incubated for 60 mins by LC-MS/MS analysis
[44] = Drug concentration in male albino Dunkin-Hartley guinea pig lung at 50 nmol/kg, IT(Intratracheal) measured after 0.083 hrs; settings: inhaled or intranasal
[45] = Drug concentration in male albino Dunkin-Hartley guinea pig lung at 50 nmol/kg, IT(Intratracheal) measured after 3 hrs; settings: inhaled or intranasal
[46] = Drug concentration in male albino Dunkin-Hartley guinea pig lung at 50 nmol/kg, IT(Intratracheal) measured after 24 hrs; settings: inhaled or intranasal

SMILES | IC50 [1] [nM] | IC50 [2] [nM] | IC50 (Trachea) [nM] | inhibition in vivo at 0.003 µmol/kg (Cavia porcellus [3]) [%] | inhibition in vivo at 0.001 µmol/kg (Cavia porcellus [4]) [%] | inhibition in vivo at 0.003 µmol/kg (Cavia porcellus [5]) [%] | fraction unbound at 4 h, 5 µM [7] | Ki [9] [nM] | Ki [10] [nM] | half-life at 1 h, 1 µM (in vitro [11]) [h] | hepatocyte CLint at 1.5 h, 1 µM (in vitro [12]) [µL/min/1e6 cells] | hepatocyte CLint at 1.5 h, 1 µM (in vitro [13]) [µL/min/1e6 cells] | half-life at 1 h, 1 µM (in vitro [14]) [h] | half-life at 1 h, 1 µM (in vitro [15]) [h] | half-life at 2 h, 5 µM (in vitro [16]) [h] | half-life at 2 h, 5 µM (in vitro [17]) [h] | half-life at 2 h, 5 µM (in vitro [18]) [h] | inhibition in vivo at 0.003 µmol/kg (Cavia porcellus [19]) [%] | remaining at 1 h, 1 µM [21] [%] | hepatocyte CLint at 1.5 h, 1 µM (in vitro [24]) [µL/min/1e6 cells] | other results
O=C(c1ccc(OCc2ccc(CNC[C@H](O)c3ccc(O)c4[nH]c(=O)ccc34)cc2)cc1)N1CCC(C(=O)OC2CN3CCC2CC3)(c2ccccc2)CC1 (single isomer, unassigned) | 2.51 | 0.501 | 1 | 21 | 60 | 93 | 0.02 | 0.251 | 0.2 | 3.6 | 15 | 27 | 4.67 | 3.62 | > 2.5 | > 2.5 | 1.82 | 90 | – | – | inhibition in vivo at 0.003 µmol/kg (Cavia porcellus [6]): 68%; fraction unbound at 4 h, 5 µM [8]: 0.15
O=C(NCCCOc1cccc([C@@](O)(C(=O)OCC2CCN(Cc3ccccc3)CC2)c2ccccc2)c1)c1ccc(CNCC(O)c2ccc(O)c3[nH]c(=O)ccc23)cc1 (some centres not stated) | 10 | 0.0501 | 0.251 | 86 | – | 93 | 0.01 | 10 | 0.0501 | 4.67 | 18 | 33 | 2.3 | 4.52 | > 2.5 | 0.183 | > 2.5 | 70 | 91.9 | 41 | fraction unbound at 4 h, 5 µM [20]: 0.01; inhibition in vivo at 0.003 µmol/kg (Cavia porcellus [22]): 39%; inhibition in vivo at 0.003 µmol/kg (Cavia porcellus [23]): 56%; inhibition in vivo at 0.003 µmol/kg (Cavia porcellus [25]): 39%
O=C(NCCCOc1cccc([C@](O)(C(=O)O)c2ccccc2)c1)c1ccc(CNC[C@H](O)c2ccc(O)c3[nH]c(=O)ccc23)cc1 | – | – | – | – | – | – | – | > 50.1 | – | – | – | – | – | – | – | – | – | – | – | – | IC50 [26]: > 150000 nM; IC50 [27]: > 150000 nM; IC50 [28]: > 150000 nM
Cn1nc(C(=O)OCCCCNC[C@H](O)c2ccc(O)c3[nH]c(=O)ccc23)cc1COc1cccc([C@@H](NC(=O)O[C@H]2CN3CCC2CC3)c2ccccc2)c1 | – | – | – | – | 93 | – | – | – | – | – | – | – | – | – | – | – | – | – | 98.5 | – | inhibition in vivo at 0.001 µmol/kg (Cavia porcellus [29]): 73%; inhibition in vivo at 0.001 µmol/kg (Cavia porcellus [30]): 51%; inhibition in vivo at 0.001 µmol/kg (Cavia porcellus [31]): 71%; inhibition in vivo at 0.001 µmol/kg (Cavia porcellus [32]): 84%; inhibition in vivo at 0.001 µmol/kg (Cavia porcellus [33]): 45%
CCN1CCC(COC(=O)[C@](O)(c2ccccc2)c2cccc(OCCCNC(=O)c3cc(OC)c(CNC[C@H](O)c4ccc(O)c5[nH]c(=O)ccc45)cc3F)c2)CC1.O=C(O)C(F)(F)F.O=C(O)C(F)(F)F | 3.16 | 3.16 | 0.501 | – | – | – | – | 0.0126 | 0.501 | 4.67 | 2 | 27 | 4.67 | 4.67 | > 2.5 | 0.933 | > 2.5 | – | 96.5 | 60 | inhibition in vivo at 0.0003 µmol/kg (Cavia porcellus [34]): 85%; inhibition in vivo at 0.0003 µmol/kg (Cavia porcellus [35]): 78%; inhibition in vivo at 0.0003 µmol/kg (Cavia porcellus [36]): 60%; inhibition in vivo at 0.0003 µmol/kg (Cavia porcellus [37]): 62%; inhibition in vivo at 0.0003 µmol/kg (Cavia porcellus [38]): 61%; inhibition in vivo at 0.0003 µmol/kg (Cavia porcellus [39]): 51%
O=C(NCCCOc1cccc([C@](O)(C(=O)OCC2CCN(Cc3ccccc3)CC2)c2ccccc2)c1)c1ccc(CNC[C@H](O)c2ccc(O)c3[nH]c(=O)ccc23)cc1 | 0.398 | 0.316 | 0.501 | – | 94 | – | 0.01 | 0.398 | 0.1 | 0.35 | 25 | 30 | 3.22 | 2.37 | > 2.5 | 0.45 | < 0.0833 | – | 14 | 316 | inhibition in vivo at 0.0003 µmol/kg (Cavia porcellus [34]): 34%; inhibition in vivo at 0.001 µmol/kg (Cavia porcellus [29]): 66%; inhibition in vivo at 0.0003 µmol/kg (Cavia porcellus [35]): 49%; inhibition in vivo at 0.001 µmol/kg (Cavia porcellus [30]): 5%; inhibition in vivo at 0.001 µmol/kg (Cavia porcellus [31]): 95%; remaining at 1 h, 10 µM [40]: 70%; remaining at 1 h, 10 µM [41]: 91%; remaining at 1 h, 10 µM [42]: 67%; remaining at 1 h, 10 µM [43]: > 99%; concentration at 0.083 h [44]: 1270 ng/g; concentration at 3 h [45]: 1160 ng/g; concentration at 24 h [46]: 1170 ng/g; inhibition in vivo at 0.0003 µmol/kg (Cavia porcellus [38]): 23%; inhibition in vivo at 0.001 µmol/kg (Cavia porcellus [32]): 87%; inhibition in vivo at 0.001 µmol/kg (Cavia porcellus [33]): 79%
